In PubChem BioAssay (NCI):
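In this assay, cells in 96-well plates receive the compound at five concentrations for 48 hours. Endpoints are linearly interpolated between the surrounding concentrations. At the TGI there is no net growth.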

Key:
Experiment in all cases: NCI tumour cell line growth inhibition, 48 h
[1] = test system: IGROV1 ovarian
[2] = test system: SW-620 colon
[3] = test system: HOP-92 NSCLC
[4] = test system: OVCAR-5 ovarian
[5] = test system: UACC-257 melanoma
[6] = test system: OVCAR-8 ovarian
[7] = test system: MDA-MB-435
[8] = test system: SF-268 CNS
[9] = test system: MDA-MB-231 breast
[10] = test system: SNB-19 CNS

Row | Compound | TGI [1] [µM] | TGI [2] [µM] | TGI [3] [µM] | TGI [4] [µM] | TGI [5] [µM] | TGI [6] [µM] | TGI [7] [µM] | TGI [8] [µM] | TGI [9] [µM] | TGI [10] [µM]
1 | Cc1nnc(SCc2nc(C#N)c(C#N)nc2CSc2nnc(C)s2)s1 | 33.5 | 15.6 | 26.8 | 34.5 | 28.3 | > 100 | 26.4 | 35.4 | 31.4 | > 100
2 | Cc1ccc(S(=O)(=O)NC(=O)Nc2ccc(C(=O)O)cc2)cc1 | > 100 | > 100 | > 100 | > 100 | > 100 | > 100 |  | > 100 | > 100 | > 100
3 | COC(=O)[C@H](C)NC(=O)[C@H](NS(=O)(=O)c1nc2ccccc2s1)c1ccccc1 | > 100 | > 100 | 27.4 |  | 26.3 | 33.7 | > 100 | 33.5 | 64.6 | 73.3
4 | O=C(O)CCCc1ccc2c(c1)C(C(=O)O)CC2 (stereo unspecified) | > 100 | > 100 |  | > 100 | > 100 | > 100 |  | > 100 | > 100 | > 100
5 | COc1cc(C2c3cc4c(cc3[C@@H](Nc3ccc(F)cc3)C3COC[C@H]23)OCO4)cc(OC)c1O (stereo partly specified) | > 25 | > 25 |  | 14.1 | > 25 | > 25 | > 25 | > 25 | 15.1 | 16.2
6 | CC(=O)OC12c3ccccc3C(c3ccccc31)C1C(=O)N(N=C(C)C)C(=O)C12 (stereo unspecified) | > 100 | > 100 |  | > 100 | > 100 | > 100 |  | > 100 | > 100 | > 100
7 | CC1(C)N=C(/C(Cl)=[N+](/[O-])C(=O)c2ccc(Cl)cc2)C(C)(C)N1O | > 100 | 44.9 | 31.4 | 42.5 | 38.1 | 45.3 | 52.4 | 89.2 | 40 | > 100
8 | BrC1(c2ccccc2)C[n+]2c(-c3ccccc3)cc(-c3ccccc3)cc2-c2ccccc21 (stereo unspecified) | 5.14 | 11.4 | 3.7 | 4.1 | 2.55 | 6.37 | 0.538 | 2.96 | 1.63 | 17.5
9 | O=C(Nc1cccc2ccccc12)c1cc2ccccc2oc1=O | > 100 | > 100 | > 100 | > 100 | > 100 | > 100 | > 100 | > 100 | 58.1 | 85.1
10 | Cc1cc(-c2ccc(N=Nc3ccc4c(S(=O)(=O)O)cc(S(=O)(=O)O)c(N)c4c3O)c(C)c2)ccc1N=Nc1ccc2c(S(=O)(=O)O)cc(S(=O)(=O)O)c(N)c2c1O | > 100 | > 100 | > 100 | > 100 | > 100 | > 100 |  | > 100 |  | > 100
11 | O=C1/C(=C\c2cccc(Oc3ccccc3)c2)SC(c2ccccc2)N1c1cc(Cl)ccc1Cl (stereo unspecified) | > 100 | 41.6 | 74.4 | > 100 | > 100 | 57 | > 100 | 58.6 | > 100 | > 100
12 | CC(C)CNP(=O)(NCC(C)C)Oc1ccc(CC(NC(=O)OCc2ccccc2)C(=O)OCc2ccccc2)cc1 (stereo unspecified) | > 100 | 40.2 | > 100 | > 100 | 59.1 | 32.7 | 22.8 | 33 | 34.9 | 57.8
13 | CC(C)C(NCc1c2ccccc2[n+](C)c2ccccc12)C(=O)O (stereo unspecified) | 25.5 | 18.8 | 12.5 | 33.2 | 19.5 | 15.1 |  | 10.9 |  | 33
14 | [N-]=[N+]=CC(=O)C1CCN(c2ccccc2)C1=O (stereo unspecified) | > 10 | > 10 |  | > 10 | > 10 | > 10 | > 10 | > 10 | > 10 | > 10
15 | O=c1c2[nH]cnc2n(-c2ccccc2)c(=S)n1-c1ccccc1 | > 100 | > 100 |  | > 100 | > 100 | > 100 | > 100 | > 100 | > 100 | 
16 | COc1cc2c(cc1OC)C1=C(C=O)c3ccc(OC)c(OC)c3C(O)N1CC2 (stereo unspecified) |  | > 100 |  | > 100 | 50 |  | > 100 | > 100 | 46.6 | > 100
17 | O=S(Nc1ccccc1)c1ccc(Cl)cc1 (stereo unspecified) | > 100 | > 100 |  | > 100 | > 100 | > 100 | > 100 | 82.9 | > 100 | > 100
18 | CC1(C)C(=O)/C(=C/c2ccccc2)C(C)(C)C1(C)C | > 100 | > 100 | > 100 | > 100 | > 100 | > 100 | > 86.6 |  | > 100 | > 100
19 | CC(C)(NO)/C(=N\O)c1ccccc1 |  | > 10 | > 10 | > 10 | > 10 | > 10 | > 10 | > 10 | > 10 | > 10
20 | CC1CC(c2ccccc2)=Nc2ccccc2S1 (stereo unspecified) | > 100 | > 100 | > 100 | > 100 | > 100 | > 100 |  | > 100 |  | > 100
21 | C=CCOC(C)(C)C1=CCC(C)CC1 (stereo unspecified) | > 100 | > 100 | > 100 | > 100 | > 100 | > 100 | > 100 | > 100 |  | > 100
22 | COC(=O)CCC(C)[C@H]1CCC2C3CC[C@@H]4CC5(CC[C@]4(C)C3C[C@H](OC(C)=O)[C@@]21C)OOC1(CCCCC1)OO5 (stereo partly specified) | 5.48 |  | > 100 | > 100 | > 100 | > 100 | 37 | > 100 | > 100 | > 100
